Data taken from patent US8124637B2, “Anthra [1, 2-d]imidazole-6,11-dione derivatives, preparation method and application thereof” (National Defense Medical Center, priority 2010, dated 2012).

What was measured:
[1] = test system: HS 578-T; experiment: NCI 60-cell drug screen, one dose; format: cell-based, human; conditions: Breast Cancer HS 578-T, 1.00E−5 Molar
Description: (§1) In brief, cellular protein levels were determined after 48 hours of drug exposure by sulforhodamine B colorimetry.
(§2) The screening system in United State National Cancer Institute (NCI) consists of 60 kinds of different human cancer cells, which can be used to assay the growth-inhibiting ability or cell toxicity of a compound against various cancer and tumor at a certain concentration. The NCI had selected 6 compounds synthesized above, and performed cell toxicity assay against 60 kinds of cancer cell strains (Table 2) (DTP Human Tumor Cell Line Screen), in which each compound was assayed at a certain concentration to observe its inhibition ability or cell toxicity against various kinds of cancer and tumor.

[2] = NCI 60-cell drug screen, one dose; format: cell-based, human; conditions: Renal Cancer A489, 1.00E−5 Molar
Description: as §1, §2

[3] = test system: NCI-H522; experiment: NCI 60-cell drug screen, one dose; format: cell-based, human; conditions: Non-Small Cell Lung Cancer NCI-H522, 1.00E−5 Molar
Description: as §1, §2

[4] = test system: 786-0; experiment: NCI 60-cell drug screen, one dose; format: cell-based, human; conditions: Renal Cancer 786-0, 1.00E−5 Molar
Description: as §1, §2

[5] = test system: SK-MEL-2; experiment: NCI 60-cell drug screen, one dose; format: cell-based, human; conditions: Melanoma SK-MEL-2, 1.00E−5 Molar
Description: as §1, §2

[6] = test system: HT29; experiment: NCI 60-cell drug screen, one dose; format: cell-based, human; conditions: Colon Cancer HT29, 1.00E−5 Molar
Description: as §1, §2

[7] = test system: ACHN; experiment: NCI 60-cell drug screen, one dose; format: cell-based, human; conditions: Renal Cancer ACHN, 1.00E−5 Molar
Description: as §1, §2

[8] = test system: MDA-MB-231/ATCC; experiment: NCI 60-cell drug screen, one dose; format: cell-based, human; conditions: Breast Cancer MDA-MB-231/ATCC, 1.00E−5 Molar
Description: as §1, §2

[9] = test system: SK-OV-3; experiment: NCI 60-cell drug screen, one dose; format: cell-based, human; conditions: Ovarian Cancer SK-OV-3, 1.00E−5 Molar
Description: as §1, §2

[10] = test system: MDA-MB-468; experiment: NCI 60-cell drug screen, one dose; format: cell-based, human; conditions: Breast Cancer MDA-MB-468, 1.00E−5 Molar
Description: as §1, §2

[11] = test system: SF-539; experiment: NCI 60-cell drug screen, one dose; format: cell-based, human; conditions: CNS Cancer SF-539, 1.00E−5 Molar
Description: as §1, §2

[12] = test system: SW-620; experiment: NCI 60-cell drug screen, one dose; format: cell-based, human; conditions: Colon Cancer SW-620, 1.00E−5 Molar
Description: as §1, §2

[13] = test system: LOX IMVI; experiment: NCI 60-cell drug screen, one dose; format: cell-based, human; conditions: Melanoma LOX IMVI, 1.00E−5 Molar
Description: as §1, §2

[14] = test system: EKVX; experiment: NCI 60-cell drug screen, one dose; format: cell-based, human; conditions: Non-Small Cell Lung Cancer EKVX, 1.00E−5 Molar
Description: as §1, §2

[15] = test system: SNB-75; experiment: NCI 60-cell drug screen, one dose; format: cell-based, human; conditions: CNS Cancer SNB-75, 1.00E−5 Molar
Description: as §1, §2

[16] = test system: HOP-62; experiment: NCI 60-cell drug screen, one dose; format: cell-based, human; conditions: Non-Small Cell Lung Cancer HOP-62, 1.00E−5 Molar
Description: as §1, §2

[17] = test system: TK-10; experiment: NCI 60-cell drug screen, one dose; format: cell-based, human; conditions: Renal Cancer TK-10, 1.00E−5 Molar
Description: as §1, §2

[18] = test system: SNB-19; experiment: NCI 60-cell drug screen, one dose; format: cell-based, human; conditions: CNS Cancer SNB-19, 1.00E−5 Molar
Description: as §1, §2

[19] = test system: SK-MEL-28; experiment: NCI 60-cell drug screen, one dose; format: cell-based, human; conditions: Melanoma SK-MEL-28, 1.00E−5 Molar
Description: as §1, §2

[20] = test system: NCI-H322M; experiment: NCI 60-cell drug screen, one dose; format: cell-based, human; conditions: Non-Small Cell Lung Cancer NCI-H322M, 1.00E−5 Molar
Description: as §1, §2

[21] = test system: DU145; experiment: NCI 60-cell drug screen, one dose; format: cell-based, human; conditions: Prostate Cancer DU145, 1.00E−5 Molar
Description: as §1, §2

[22] = test system: SN12C; experiment: NCI 60-cell drug screen, one dose; format: cell-based, human; conditions: Renal Cancer SN12C, 1.00E−5 Molar
Description: as §1, §2

[23] = test system: OVCAR-5; experiment: NCI 60-cell drug screen, one dose; format: cell-based, human; conditions: Ovarian Cancer OVCAR-5, 1.00E−5 Molar
Description: as §1, §2

[24] = test system: MDA-MB-435; experiment: NCI 60-cell drug screen, one dose; format: cell-based, human; conditions: Melanoma MDA-MB-435, 1.00E−5 Molar
Description: as §1, §2

[25] = test system: M14; experiment: NCI 60-cell drug screen, one dose; format: cell-based, human; conditions: Melanoma M14, 1.00E−5 Molar
Description: as §1, §2

[26] = test system: KM12; experiment: NCI 60-cell drug screen, one dose; format: cell-based, human; conditions: Colon Cancer KM12, 1.00E−5 Molar
Description: as §1, §2

[27] = test system: hTERT promoter (PhTERT) expression; experiment: SEAP assay (PhTERT-SEAP reporter, H1299); format: cell-based, human; conditions: Homo sapiens, NCI-H1299, PhTERT-SEAP (H1299); for activity at 1 µM: read-out: Relative SEAP activity (%); for activity at 10 µM / activity at 100 µM: read-out: Relative SEAP activity (%) (converted)
Method in brief: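 Stable H1299 clones carrying the hTERT promoter (−3338 to +1) driving SEAP were treated with varying drug amounts for 24 h at 37° C. Heat-treated media (65° C, 10 min) were assayed with 12 mM p-nitrophenyl phosphate in diethanolamine buffer; rate of A405 increase gave SEAP activity.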

[28] = test system: 60 kinds of different human cancer cells; experiment: NCI 60-cell drug screen, one dose, whole panel; format: cell-based; conditions: mean over the tested cell lines, 1.00E−5 Molar
Description: as §1, §2

Compound	Growth Percent [1]	Growth Percent [2]	Growth Percent [3]	Growth Percent [4]	Growth Percent [5]	Growth Percent [6]	Growth Percent [7]	Growth Percent [8]	Growth Percent [9]	Growth Percent [10]	Growth Percent [11]	Growth Percent [12]	Growth Percent [13]	Growth Percent [14]	Growth Percent [15]	Growth Percent [16]	Growth Percent [17]	Growth Percent [18]	Growth Percent [19]	Growth Percent [20]	also measured
O=C1c2ccccc2C(=O)c2c1ccc1nc(CN3CCN(c4ccccn4)CC3)[nH]c21 [CL28, 2-((4-(pyridin-2-yl)piperazin-1-yl)methyl)-1H-anthra[1,2-d]imidazole-6,11-dione]	111.04%	68.23%	94.06%	91.03%	98.34%	75.79%	80.61%	72.65%	93.16%	53.92%	104.29%	85.97%	82.25%	63.00%	82.14%	103.18%	120.65%	81.00%	114.23%	93.77%	Growth Percent [21]: 81.46%; Growth Percent [22]: 79.85%; Growth Percent [23]: 110.77%; Growth Percent [24]: 94.85%; Growth Percent [25]: 103.99%; Growth Percent [26]: 95.03%; activity at 1 µM [27]: 91.2 ± 2.69%; activity at 10 µM [27]: 57.1%; activity at 100 µM [27]: 1.12%; Growth Percent, Mean [28]: 87.65%
O=C1c2ccccc2C(=O)c2c1ccc1nc(CN3CCCCC3)[nH]c21 [CL16, 2-((piperidin-1-yl)methyl)-1H-anthra[1,2-d]imidazole-6,11-dione]	50.98%	61.84%	84.14%	62.88%	113.29%	61.38%	47.11%	77.93%	92.54%	58.32%	82.47%	71.72%	62.99%	77.14%	86.42%	92.69%	115.68%	76.33%	107.08%	92.47%	Growth Percent [21]: 74.90%; Growth Percent [22]: 96.96%; Growth Percent [23]: 101.70%; Growth Percent [24]: 102.02%; Growth Percent [25]: 100.82%; Growth Percent [26]: 77.40%; activity at 1 µM [27]: 75.8 ± 26.9%; activity at 10 µM [27]: < 50%; activity at 100 µM [27]: 6.78%; Growth Percent, Mean [28]: 75.35%
CCN(CC)Cc1nc2ccc3c(c2[nH]1)C(=O)c1ccccc1C3=O [CL04, 2-((diethylamino)methyl)-1H-anthra[1,2-d]imidazole-6,11-dione]	70.37%	49.50%	73.14%	64.88%	102.69%	56.02%	48.41%	75.52%	86.81%	54.46%	85.26%	60.46%	61.98%	73.22%	82.03%	85.27%	98.12%	75.06%	92.41%	90.06%	Growth Percent [21]: 73.54%; Growth Percent [22]: 69.04%; Growth Percent [23]: 96.50%; Growth Percent [24]: 88.53%; Growth Percent [25]: 97.86%; Growth Percent [26]: 76.89%; activity at 1 µM [27]: 91.2 ± 4.38%; activity at 10 µM [27]: < 50%; activity at 100 µM [27]: 0.13%; Growth Percent, Mean [28]: 69.66%
O=C1c2ccccc2C(=O)c2c1ccc1nc(CN3CCN(c4ccccc4)CC3)[nH]c21 [CL27, 2-((4-phenylpiperazin-1-yl)methyl)-1H-anthra[1,2-d]imidazole-6,11-dione]	80.56%	75.09%	73.61%	88.48%	101.39%	87.57%	86.32%	90.47%	98.95%	72.75%	112.36%	90.92%	95.76%	88.70%	70.93%	98.40%	118.37%	103.62%	127.46%	91.96%	Growth Percent [21]: 90.69%; Growth Percent [22]: 89.91%; Growth Percent [23]: 107.63%; Growth Percent [24]: 101.37%; Growth Percent [25]: 106.33%; Growth Percent [26]: 85.80%; activity at 1 µM [27]: 92.23 ± 0.78%; activity at 10 µM [27]: 76.7%; activity at 100 µM [27]: 5.83%; Growth Percent, Mean [28]: 90.15%
